PubChem BioAssay (NCI)
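Grown in 96-well plates, cells were treated for 48 hours with each compound at five concentrations. Insufficient inhibition: endpoint recorded as highest concentration tested. Abbreviation: GI50, concentration required for 50% inhibition of growth. TGI: concentration producing complete growth inhibition.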

What was measured:
Assay in all cases: NCI tumour cell line growth inhibition, 48 h
EKVX NSCLC = system: EKVX NSCLC
M14 melanoma = system: M14 melanoma
TK-10 renal = system: TK-10 renal
UACC-62 melanoma = system: UACC-62 melanoma
U251 CNS = system: U251 CNS
A549 NSCLC = system: A549 NSCLC
MOLT-4 leukemia = system: MOLT-4 leukemia
CCRF-CEM leukemia = system: CCRF-CEM leukemia
NCI-H460 lung = system: NCI-H460 lung
HT29 colon = system: HT29 colon
786-0 renal = system: 786-0 renal
OVCAR-4 ovarian = system: OVCAR-4 ovarian
SNB-75 CNS = system: SNB-75 CNS

Structure (SMILES) | TGI (EKVX NSCLC) [µM] | TGI (M14 melanoma) [µM] | TGI (TK-10 renal) [µM] | TGI (UACC-62 melanoma) [µM] | TGI (U251 CNS) [µM] | TGI (A549 NSCLC) [µM] | TGI (MOLT-4 leukemia) [µM] | TGI (CCRF-CEM leukemia) [µM] | TGI (NCI-H460 lung) [µM] | TGI (HT29 colon) [µM] | TGI (786-0 renal) [µM] | TGI (OVCAR-4 ovarian) [µM] | TGI (SNB-75 CNS) [µM] | GI50 (MOLT-4 leukemia) [µM] | GI50 (HT29 colon) [µM]
Cc1ccc(O)c(C2=NNC(c3cccc(Cl)c3)C2)c1 (configuration not stated) | > 100 | > 100 | > 100 | > 100 | > 100 | > 100 | > 100 | > 100 | > 100 | > 100 | > 100 | 94 |  |  | 
CC(=O)N1N=C(c2ccc3ccccc3c2O)CC1c1ccc(N(C)C)cc1 (configuration not stated) |  | > 100 | > 100 | > 100 | > 100 | > 100 | > 100 | > 100 | > 100 | > 100 | > 100 | > 100 | > 100 |  | 
Cc1ccc(O)c(C(c2cc(C)ccc2O)c2cc([N+](=O)[O-])ccc2O)c1 | 32.3 | 24.5 | 34.8 | 36.6 | 46.4 | 31.2 | 35 | 91 |  | 38.3 | 33.9 | 28.3 | 21.2 |  | 
COC(=O)C(=O)C(C(C)=O)C(=O)C(=O)Nc1ccc(C)cc1C (configuration not stated) | > 100 | > 100 | > 100 | > 100 | > 100 | > 100 | > 100 | > 100 | > 100 | > 100 |  | > 100 | > 100 |  | 
CC(C)(C)OC(=O)C1/C(=C/CBr)CN1C(=O)OC(C)(C)C (configuration not stated) | 37.3 | 41.9 | 31.3 | 33.4 |  | 38 | 26.1 | 6.22 | 34.9 | > 100 | 23.2 | 7.79 |  |  | 
O=S(=O)(CF)OCCCCOS(=O)(=O)CF | > 100 | > 100 | > 100 | > 100 | > 100 |  | > 100 | > 100 | > 100 | > 100 |  |  | > 100 |  | 
O=Cc1ccc(-c2ccc(S(=O)(=O)O)cc2)o1 | > 100 | > 100 | > 100 | > 100 | > 100 | > 100 | > 100 |  | > 100 | > 100 | > 100 |  |  |  | 
COc1cc2c(cc1O)C(=O)O[C@@H]1CC=C3CCN(C)[C@H]3[C@H]21 | > 25 | > 25 | > 25 | > 25 | > 25 | > 25 | > 25 | > 25 |  | > 25 | > 25 | > 25 | > 25 |  | 
CCCCCC(/C=C/c1ncccc1OCCCCCC(=O)O)=N\NC1=NCCN1 | > 100 | > 100 | > 100 | > 100 |  | > 100 | > 100 | > 100 | > 100 | > 100 |  | > 100 | > 100 |  | 
CCOC(=O)c1nc2cc(F)cc(F)c2[nH]c1=O |  | > 100 | > 100 | > 100 | > 100 | > 100 | > 100 | > 100 | > 100 | > 100 | > 100 | > 100 | > 100 |  | 
CCOC(=O)c1ccn2c(c1)c(C#N)c1nc3ccccc3nc12 | > 100 | > 100 | > 100 | 25.7 | > 100 | > 100 | 50.6 | 68.4 | > 100 |  | > 100 | > 100 | > 100 |  | 
N#CCCN(CCC#N)c1ccc(/C=C(/NC(=O)Nc2ccccc2Cl)NC(=O)c2cc([N+](=O)[O-])ccc2Cl)cc1 | > 100 | > 100 | > 100 | > 100 | > 100 | > 100 | > 100 | > 100 |  |  |  | > 100 |  |  | 
O=C1C2C3C=C4c5ccccc5N(c5ccccc5)C4([C@@H]2C(=O)N1c1ccc(F)cc1)[C@H]1C(=O)N(c2ccc(F)cc2)C(=O)[C@@H]31 (some centres not stated) | > 100 | > 100 | > 100 |  | > 100 | > 100 | > 100 | > 100 |  |  | > 100 |  | > 100 |  | 
COc1ccc2[nH]c3c(O)c(-c4c(C)cc5c([nH]c6ccc(OC)cc65)c4O)c(C)cc3c2c1 | 7.8 | 7.99 | 8.19 |  | 7.98 | 7.97 | 7.52 |  | 7.52 | 7.6 | 8.62 | 7.22 | 7.18 | 3.23 | 3.71
CCCCCCCCCCCCCCCCCCOCC(O)CO (configuration not stated) | > 14.1 |  |  | > 25 | > 25 | 5.32 | > 25 | > 22.5 | > 23 | > 15.8 |  | > 25 | 24.8 |  | 
C1=Cc2cccc3occ(c23)C=C1 | > 100 | > 100 | > 100 | > 100 | > 100 | > 100 | 79.4 | 49.9 | > 100 | > 100 | > 100 | > 100 |  |  | 
CC(=O)OC(C)c1cc2c(s1)C(=O)c1ccsc1C2=O (configuration not stated) | 2.74 | 0.604 | 2.49 | 0.23 | 1.11 | 2.66 | 0.684 | 0.653 |  |  | 0.978 | 1.93 | 0.301 |  | 
COc1cc(/C=N/n2c(C)n[nH]c2=O)cc(OC)c1OC | > 100 | > 100 |  | > 100 | > 100 | > 100 | > 100 | > 100 | > 100 | > 100 | > 100 | > 100 | > 100 |  | 
CC(C)=CCOc1ccc(-c2coc3cc4c(c(O)c3c2=O)C=CC(C)(C)O4)cc1 | > 100 |  | > 100 |  | > 100 | > 100 | > 100 | > 100 | > 100 | > 100 | > 100 | 80 |  |  | 
